From US20180250306A1, “ALDEHYDE CONJUGATES AND USES THEREOF” (ALDEYRA THERAPEUTICS, INC., priority 2015, published 2018)

Columns and labels:
[1] = system: JNK; assay: Western Blot of MAPK signaling pathways in cardiac fibroblasts; type: cell-based, neonatal rats; details: NS2 treatment at any level; single blot
Procedure: (§1) Thirty hearts from neonatal rats were minced and digested (Neonatal Cardiomyocyte Isolation System, LK003303, Worthington). After tissue digestion and cell dissociation, cell suspensions were plated into 35 mm dishes or onto coverslips in wells of 24-well plates. Serum-free DMEM was added to the cell suspensions and the cells allowed to adhere for 2 hrs. After two hours, the cell suspension was removed and the adherent cells were fed with DMEM containing 10% fetal bovine serum (FBS). Cells were maintained in DMEM+10% FBS for 24 hours before treatments. Treatment duration was 24 hours.
(§2) Cell samples were divided in to 2 groups, stimulated with H2O2 or not stimulated with H2O2. […] The cells that were treated with H2O2 contained a final concentration of 0.001% in the wells. Drug was dissolved in 9.5% Captisol®, to a stock concentration of 5 mg/ml. […] Cells were treated for 24 hours then either fixed for immunostaining or collected as lysates for Western Blot analysis.
Whole cell lysates were used for Western blotting; nuclear and cytosolic fractions were not prepared. DMEM from cells plated in 35 mm plates was removed, the cells rinsed quickly in PBS, then incubated in 500 ul cold RIPA buffer for 20-30 minutes at 4° C. under gentle rocking. Following RIPA incubation, cells were scraped from the dish using cell scrapers and frozen at −80° C. overnight to increase cell lysing. […]

[2] = system: Primary rat cortical cultures; assay: LDH cytotoxicity assay, aldehyde-mediated cell death in neurons; type: cell-based
Procedure: Primary rat cortical cultures are placed in an incubator for 24 or 48 hours and treated with various concentrations of disclosed compounds. Then 20 μL of the culture media is removed for an LDH assay as described in Bergmeyer et al., Methods of Enzymatic Analysis, 3rd ed. (1983).

[3] = system: circulating cytokines; details: LPS model, mouse; cited from earlier work
[4] = Aldehyde adduct formation over time (product HPLC peak)
Procedure: It is not possible to conclude if this is the result of poor dissociation (from cyclodextrin) or poor interaction with the aldehyde. Best fit lines over this period give excellent fit to data. […] It can be used to relatively rank each of the samples examined, including NS2. The data were first evaluated over a 7 h time window.

[5] = system: α-SMA; assay: Western Blot of α-SMA in cardiac fibroblasts; type: cell-based, neonatal rats; details: for α-SMA level (Western Blot): H2O2 stimulated cardiac fibroblasts
Procedure: as §1, §2
Whole cell lysates were used for Western blotting; nuclear and cytosolic fractions were not prepared. DMEM from cells plated in 35 mm plates was removed, the cells rinsed quickly in PBS, then incubated in 500 ul cold RIPA buffer for 20-30 minutes at 4° C. under gentle rocking. Following RIPA incubation, cells were scraped from the dish using cell scrapers and frozen at −80° C. overnight to increase cell lysing. Once thawed, cells were sonicated for 1 minute at 80% maximal power (Biologics Model 150 B/T). Samples were centrifuged at 13K for 10 min at 4° C. then supernatant was separated from pellet for analysis by gel electrophoresis. BCA protein analysis was run to determine total protein, samples normalized to 0.2 ug/uL, and then loaded onto Novex 8% Bolt gels. Gels were run for 35 min at 200 V in MOPS buffer or until the lower molecular weight band reached the bottom of the gel. Protein was then transferred to Hybond 0.45 uM Nitrocellulose (GE Healthcare) for 1 hour. Blots were blocked for 1 hr at room temperature in 5% BSA/TBSt. […]

[6] = system: cardiac fibroblasts; assay: Fibroblast activation to myofibroblast phenotype, immunostaining for α-SMA and vimentin; type: cell-based, neonatal rats
Procedure: as §1, §2
After 24 hours of treatment, cells on cover slips were rinsed twice with PBS, fixed in 1% paraformaldehyde for 10 minutes then rinsed in PBS for immunostaining. Cells were permeabilized for 18 minutes in 0.1% Triton-X 100 in PBS, then rinsed three times in PBS for 15 minutes each. Following the rinses, cover slips were incubated in Image-IT FX Signal Enhancer (Invitrogen) to reduce background intensities in images. Subsequently, cells were washed three times 15 min with PBS, followed by one hour of blocking in 10% Normal Goat Serum Cells and 0.05% Triton-X 100, and then incubated overnight in 4° C. with primary antibodies diluted in PBS with 2% Normal Goat Serum and 0.05% Triton-X 100. Antibodies were applied at the following concentrations: Alpha-Smooth Muscle Actin 1:200 (V5228, Sigma-Aldrich), Vimentin 1:200 (V6630, Sigma-Aldrich) and NFκB 1:200 (C-20, Santa Cruz Biotech). Following overnight incubation, cover slips were brought to room temperature over 10 minutes and then rinsed in PBS for 15 min. Following 1 hour of incubation in the dark with secondary antibodies (1:100 in PBS, A-21127 and A-21136, Life Technologies), cover slips were rinsed 3 times for 15 min in PBS, incubated in the dark with DAPI (Invitrogen, 1:600) for 10 minutes, and then rinsed for 3 times in PBS. Cover slips were then mounted upside down on glass slides and examined using a Leica SP8 confocal microscope equipped with a 10× air lens. Images were taken as described and split into channels. Each channel was reviewed by eye to determine if NFκB was in the nucleus or in the cytosol.

[7] = hamster cheek pouch radiation; cited from earlier work
[8] = Consumption of 4HNE over time (HPLC, 254 nm)
Text: 5 of 6 samples show consumption of 4HNE. One sample (2-(3-aminoquinolin-2-yl)propan-2-ol) overlaps 4HNE HPLC peak using current method. Best fit lines over this period give poorer fit to data than product formation data. Rate of 4HNE consumption can be used as an approximation of binding kinetics. […] The data were used to rank relatively each of the samples examined, including NS-2 but excluding 2-(3-aminoquinolin-2-yl)propan-2-ol.

[9] = rank from most effective (1) to least

In the case of `CC(C)(O)c1nc2ccc(Cl)cc2cc1N` [NS2, 2-(3-amino-6-chloroquinolin-2-yl)propan-2-ol], the “JNK-pJNK (Western Blot)” value [1] is listed as “no changes”, the “aldehyde-mediated cell death in neurons” value [2] is listed as “prevent” and the “activation of IL-1β” value [3] is listed as “significantly decreased”. The “activation of IL-17” value [3] was “significantly decreased”, the “activation of TGF-β” value [3] was “significantly decreased” and the “levels of the anti-inflammatory cytokine Interleukin 10 (IL-10)” value [3] was “significantly increasing”. The “Gradient of product HPLC peak increase (rate of adduct formation)” value ([4]; 7 h time window) was “(Gradient 2.22,”, the “Gradient of product HPLC peak increase (rate of adduct formation)” value ([4]; 23 h time window) was “(Gradient 1.33,” and the “Formation of Product, ranking, 7 Hours” value [4, 9] was 2. The “Formation of Product, ranking, 23 Hours” value [4, 9] was 2, the “α-SMA level (Western Blot)” value ([5]; 10 μM) was “no significant change” and the “α-SMA level (Western Blot)” value ([5]; increased dose (100 μM, 1 mM), p<0.01) was “further α-SMA decreases, which were significant”. For the same molecule, the “α-SMA level (Western Blot) compared to control” value ([5]; non-stimulated cardiac fibroblasts, 10 μM, 100 μM, 1 mM) was “significant decreases”, the cell morphology ([6]; 1 mM, cells stimulated with H2O2 or not) was “morphology of a non-activated fibroblast” and the “α-SMA production and morphology change (immunostaining)” value ([6]; H2O2 stimulated cells, 10 μM, 24 hours) was “little effect”. For the same molecule, the “α-SMA production (immunostaining)” value ([6]; H2O2 stimulated cells, 100 μM, 24 hours) was “clear inhibition”, the “cell shape of activated myofibroblasts” value ([6]; unstimulated cells, 10 μM) was “does not change” and the “α-SMA production (immunostaining)” value ([6]; unstimulated cells, 10 μM, 24 hours) was “little effect”. The cell morphology ([6]; unstimulated cells, 100 μM) was “morphology more like that of a non-activated fibroblast”, the “α-SMA production (immunostaining)” value ([6]; unstimulated cells, 100 μM, 24 hours) was “inhibited the production of α-SMA” and the “α-SMA production (immunostaining)” value ([6]; unstimulated cells, 1 mM, 24 hours) was “appeared to limit the production of α-SMA”. For the same molecule, the “overall fibrosis at the site of injury over time” value [7] was “decrease”, the “rate of recovery from injury” value [7] was “significant increase” and the “Gradient of 4HNE consumption” value ([8]; 23 h) was “(Gradient −0.04,”. For the same molecule, the “Gradient of 4HNE consumption” value ([8]; first 7 h, analysis at 254 nm) was “(Gradient −0.15,”, the “Consumption of 4HNE, ranking, 7 Hours” value [8, 9] was 1 and the “Consumption of 4HNE, ranking, 23 Hours” value ([8]; rank from most effective (1) to least, ranks 1-4 essentially identical) was 3.
